Experimental data taken from patent US20150141381A1, “TETRACYCLINE COMPOUNDS HAVING TARGET THERAPEUTIC ACTIVITIES” (Paratek Pharmaceuticals, Inc., priority 2001, published 2015).

Experiments:
S. aureus RN450 = assay: In Vitro Anti-Bacterial Activity Assay (MIC), gram positive; assay type: cell-based; conditions: Staphylococcus aureus, RN450, 18 h, gram positive bacteria; read-out: Antibiotic Activity Gram + (MIC)
E. coli mL308 225 = assay: In Vitro Anti-Bacterial Activity Assay (MIC), gram negative; assay type: cell-based; conditions: Escherichia coli, ML308225, 18 h, gram negative bacteria; read-out: Antibiotic Activity Gram − (MIC)

Row | SMILES | MIC (S. aureus RN450) [µg/mL] | MIC (E. coli mL308 225) [µg/mL]
1 | CN(C)CC(=O)NCc1ccc(-c2ccc(O)c3c2C[C@H]2C[C@H]4[C@H](N(C)C)C(O)=C(C(N)=O)C(=O)[C@@]4(O)C(O)=C2C3=O)cc1 | < 4 | > 4
2 | CC(C)CNC(=O)Nc1ccc(-c2ccc(O)c3c2C[C@H]2C[C@H]4[C@H](N(C)C)C(O)=C(C(N)=O)C(=O)[C@@]4(O)C(O)=C2C3=O)cc1 | < 4 | < 4
3 | CN(C)[C@@H]1C(O)=C(C(N)=O)C(=O)[C@@]2(O)C(O)=C3C(=O)c4c(O)ccc(-c5ccc(CNCCc6ccc(Cl)cc6)cc5)c4C[C@H]3C[C@@H]12 | < 4 | < 4
4 | CN(C)[C@@H]1C(O)=C(C(N)=O)C(=O)[C@@]2(O)C(O)=C3C(=O)c4c(O)ccc(-c5ccc(CNCc6cccc(Cl)c6)cc5)c4C[C@H]3C[C@@H]12 | < 4 | < 4
5 | CC(C)c1cccc(-c2ccc(O)c3c2C[C@H]2C[C@H]4[C@H](N(C)C)C(O)=C(C(N)=O)C(=O)[C@@]4(O)C(O)=C2C3=O)c1 | < 4 | < 4
6 | Cc1cc(-c2ccc(O)c3c2C[C@H]2C[C@H]4[C@H](N(C)C)C(O)=C(C(N)=O)C(=O)[C@@]4(O)C(O)=C2C3=O)ccc1F | < 4 | < 4
7 | CN(C)[C@@H]1C(O)=C(C(N)=O)C(=O)[C@@]2(O)C(O)=C3C(=O)c4c(O)ccc(-c5ccc(CN6CCOCC6)c6ccccc56)c4C[C@H]3C[C@@H]12 | < 4 | < 4
8 | CCCN(CCC)Cc1ccc(-c2ccc(O)c3c2C[C@H]2C[C@H]4[C@H](N(C)C)C(O)=C(C(N)=O)C(=O)[C@@]4(O)C(O)=C2C3=O)c2ccccc12 | < 4 | < 4
9 | CCOC(=O)CNCc1ccc(-c2ccc(O)c3c2C[C@H]2C[C@H]4[C@H](N(C)C)C(O)=C(C(N)=O)C(=O)[C@@]4(O)C(O)=C2C3=O)c2ccccc12 | < 4 | < 4
10 | O=c1cc(-c2ccc(F)cc2)oc2ccccc12 | < 4 | < 4
11 | CN(C)CCC(=O)c1cc(C(C)(C)C)c(O)c2c1C[C@H]1C[C@H]3[C@H](N(C)C)C(O)=C(C(N)=O)C(=O)[C@@]3(O)C(O)=C1C2=O | < 4 | < 4
12 | CN(C)[C@@H]1C(O)=C(C(N)=O)C(=O)[C@@]2(O)C(O)=C3C(=O)c4c(O)c(C(C)(C)C)cc(-c5cnc6ccccc6c5)c4C[C@H]3C[C@@H]12 | > 4 | > 4
13 | CN(C)c1ccc(-c2cc(I)c(O)c3c2C[C@H]2C[C@H]4[C@H](N(C)C)C(O)=C(C(N)=O)C(=O)[C@@]4(O)C(O)=C2C3=O)cc1 | < 4 | > 4
14 | C[C@H]1c2ccc(-c3ccc(N(C)C)cc3)c(O)c2C(=O)C2=C(O)[C@]3(O)C(=O)C(C(N)=O)=C(O)[C@@H](N(C)C)[C@@H]3[C@@H](O)[C@@H]21 | < 4 | < 4
15 | CCCOC(=O)Nc1ccc(-c2ccc(O)c3c2C[C@H]2C[C@H]4[C@H](N(C)C)C(O)=C(C(N)=O)C(=O)[C@@]4(O)C(O)=C2C3=O)cc1 | < 4 | < 4
16 | CN(C)CCNC(=O)c1ccc(-c2ccc(O)c3c2C[C@H]2C[C@H]4[C@H](N(C)C)C(O)=C(C(N)=O)C(=O)[C@@]4(O)C(O)=C2C3=O)cc1 | < 4 | > 4
17 | CCc1cc(-c2ccc(N(C)C)cc2)c2c(c1O)C(=O)C1=C(O)[C@]3(O)C(=O)C(C(N)=O)=C(O)[C@@H](N(C)C)[C@@H]3C[C@@H]1C2 | < 4 | < 4
18 | CN(C)[C@@H]1C(O)=C(C(N)=O)C(=O)[C@@]2(O)C(O)=C3C(=O)c4c(O)ccc(-c5ccc(NC(=O)OC(C)(C)C)cc5)c4C[C@H]3C[C@@H]12 | < 4 | < 4
19 | CN(C)CCNC(=O)c1cccc(-c2ccc(O)c3c2C[C@H]2C[C@H]4[C@H](N(C)C)C(O)=C(C(N)=O)C(=O)[C@@]4(O)C(O)=C2C3=O)c1 | < 4 | > 4
